Laboratory results reported in patent publication US9428753B2, “Use of LXR antagonists for treatment of side effects of elevated glucocorticoid levels” (The Governing Council of the University of Toronto, priority 2013, dated 2016).
Entries after “also recorded” stand apart in the source; their conditions may differ.

What was measured:
[1] = system: IL-1β; test: IL-1β gene expression in LPS activated mouse primary macrophages (RT-QPCR); type: cell-based
Protocol: (§1) The expression of genes involved in immune response IL-1β, IL-6 and GILZ was measured following an overnight treatment with Dex 100 nM, 250 nM T0901317 (T09), and/or 10 μM GSK2033 in LPS activated WT, LXR α −/− and LXRβ −/− mouse primary macrophages, by RT-QPCR. Data represent the Avg±SD, N=3. *P<0.05 by One way ANOVA, Student Newman Keuls.
(§2) To assess the ability of GSK2033 to affect GR-mediated inflammatory suppression, a number of gene expression studies were conducted on primary macrophages isolated from WT, LXRα−/− and LXRβ−/− mice. Cells were pre-treated with 10 ng/ml lipopolysaccharide (LPS) for 6 hrs (to induce a potent inflammatory response) followed by treatment of 100 nM Dex, 10 μM GSK2033 and/or 250 nM T09 for 18 hrs.

[2] = system: Srebp-1c; test: Srebp-1c gene expression in mouse primary hepatocytes; type: cell-based; conditions: WT, LXRα−/− and LXRβ−/− hepatocytes; 250 nM T09 + 10 μM GSK2033
[3] = system: GILZ; test: GILZ gene expression in LPS activated mouse primary macrophages (RT-QPCR); type: cell-based; conditions: 100 nM Dex + 10 μM GSK2033, 18 hrs
Protocol: as §1, §2

[4] = system: LXRα−/− mice; test: In vivo pilot study: T09 with GSK2033, liver LXR target genes
[5] = molecular target: T1, LXRα (Homo sapiens, UniProt Q13133); test: GAL4-LXRα / UAS-luc transfection assay in mouse primary hepatocytes
T1 sequence (Q13133 209-447 limits assumed): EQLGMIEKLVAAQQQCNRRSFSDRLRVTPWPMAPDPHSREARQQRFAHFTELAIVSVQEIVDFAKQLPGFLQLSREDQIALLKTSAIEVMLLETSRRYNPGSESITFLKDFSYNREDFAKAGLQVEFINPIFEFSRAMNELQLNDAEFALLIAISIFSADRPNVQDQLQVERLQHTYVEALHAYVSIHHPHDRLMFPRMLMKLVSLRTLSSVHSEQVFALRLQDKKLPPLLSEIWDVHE

[6] = T09 5 mg/kg i.p. + GSK2033 20 or 40 mg/kg i.p.

Cc1cc(C)c(S(=O)(=O)N(Cc2ccc(-c3cccc(S(C)(=O)=O)c3)cc2)Cc2ccc(C(F)(F)F)o2)c(C)c1 [GSK2033, 2,4,6-trimethyl-N-((3′-(methylsulfonyl)-[1,1′-biphenyl]-4-yl)methyl)-N-((5-(trifluoromethyl)furan-2-yl)methyl)benzenesulfonamide]
T09 mediated suppression of IL-1β under GSK2033 co-treatment ([1]; LPS activated macrophages, 250 nM T09 + 10 μM GSK2033): antagonized
Dex-mediated IL-1β repression under GSK2033 co-treatment ([1]; WT, LXRα−/− and LXRβ−/− macrophages, LPS 10 ng/ml 6 hrs, 100 nM Dex + 10 μM GSK2033, 18 hrs): unaffected
T09 induction of Srebp-1c under GSK2033 co-treatment [2]: significantly decreased
GR-mediated induction of GILZ under GSK2033 co-treatment [3]: unaffected
liver ABCG5 activation by T09 [4, 6]: dose dependent inhibition; also recorded: dose dependent repression
liver ABCG8 activation by T09 [4, 6]: dose dependent inhibition; also recorded: dose dependent repression
toxicity ([4]; higher dose of GSK2033 (40 mg/kg)): no toxicity
right-shift of LXRα IC50, primary hepatocytes vs HEK293 [5]: ~10 fold
